The values that follow come from patent US20050107289A1, “Anti-microbial peptides and compositions” (priority 2001, published 2005).

Where two headings read alike, the source gives them in different places. Non-standard residues stand in square brackets, D forms with d. Residues, ends and D or L forms follow the SMILES beside them. Some results are limits rather than exact numbers.

The conditions of series [1]: trypsin, α-chymotrypsin, subtilisin, blood plasma; RP-HPLC over 24 h. How it is done:
Cyclic peptides having SEQ ID NO:13, 18, 26, and 29 were assayed for proteolytic susceptibility.

A further series concerns murine red blood cells. Nature of the series: Red blood cell hemolysis. The series is classed as cell-based, mouse. Also noted: RBC Hemolysis (HD50): unit not given here. The procedure, abridged:
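Hemolysis read as A560 of supernatant, scaled between saline (0%) and 1% Triton X-100 (100%) controls; peptides were serially diluted onto 5% murine red cells in saline plus 10% FBS and incubated 30 min at 37° C.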

Series [2] deals with Bacillus cereus ATCC 11778. The series is classed as cell-based. The procedure, abridged:
(§1)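 Broth macro- or microdilution MIC per NCCLS M7-A4. Peptides were serially 2-fold diluted in 5% DMSO/9% aqueous sucrose, about 400–2 μg/ml (dilution-series concentrations). Overnight cultures were diluted 4000-fold to an inoculum of about 2.5×10^5 cfu/ml.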

The subject of series [3] is vancomycin-resistant Enterococus faecalis (VRE)(ATCC 51575). The series is classed as cell-based, Enterococcus faecalis. Also noted: key to VRE (in vitro activity): peptide concentration in μg/ml (broth dilution assay). The note with it: for VRE (in vitro activity): Table 9, media a: AM-3. The procedure, abridged: as §1
The test system of a further series is E. coli JM109(DE3). The series is classed as cell-based, Escherichia coli. The procedure, abridged:
as §1

For series [4], the system named is S. aureus (MRSA) ATCC 33591. The series is classed as cell-based, Staphylococcus aureus. As to conditions: for MRSA (in vitro activity): Table 9, media a: anti-microbial media-3 (AM-3). In outline:
as §1

The subject of series [5] is S. aureus (MRSA) (ATCC No. 33591). Nature of the series: Time-killing curve, S. aureus MRSA ATCC 33591. The series is classed as cell-based, Staphylococcus aureus. The note with it: FIG. 8a; at MIC concentrations. Here is the method:
The speed at which several of the cyclic peptides of the invention kill E. coli JM 109 (DE3), Enterococcus faecium SP 180 and S. aureus (MRSA) (ATCC No. 33591 and 33592) was further tested at room temperature and/or at 37° C. A lower temperature tends to enrich the bacterial cultures for mature bacteria because the bacteria are not growing quickly. […] The presence or absence of immature bacteria in the culture may influence the rate at which the bacteria are killed, because immature bacteria tend to be more susceptible to many forms of antibiotics.
To generate the data shown in FIG. 8a, the log of the number of colony forming units (cfu) per ml of culture was determined as a function of time after treatment of S. aureus (MRSA) (ATCC No. 33591) with cyclo[KHLWLW] (closed circles), cyclo[KRKWLWLW] (closed triangles), and cyclo[KQRWLWLW] (open squares) at MIC concentrations. […] The reduction in cfu count was greater than 3 log units. Cyclic peptide cyclo[KHLWLW] killed effectively all S. aureus (MRSA) within about 60 minutes.

Series [6] concerns Streptococcus pneumoniae (ATCC 6301). The series is classed as cell-based. In outline: as §1
Series [7] is described as follows: Proton transport in vesicles with pH gradient. The note with it: vesicles pH 6.5 inside, pH 5.5 outside. Here is the method:
Formation of supramolecular structures that can permeabilize membranes was also inferred from proton transport activity. Vesicles were prepared having pH 6.5 inside and pH 5.5 in the outside bulk solution. The collapse of the imposed pH gradient in these vesicles, upon formation of the putative transmembrane channel structure, was studied by monitoring the fluorescence intensity of an entrapped pH-sensitive dye. (V. E. Carmichael et al, in J.Am. Chem. Soc. (1989), vol. 111, pages 767-769). Addition of peptide cyclo[-(Trp-D-Leu)3-Gln-D-Leu-]
Unilamellar vesicles were prepared by the reverse-phase evaporation using DPPC, OPPC, cholesterol in the ratio of 1:1:2 in a solution containing 5(6)-carboxyfluorescein (20 mM in phosphate/saline buffer: 137 mM NaCl, 2.6 mM KCI, 6.4 mM Na2HPO4, 1.4 mM KH2PO4, pH 6.5) according to the method of F. Szoka et al. in Proc. Natl. Acad. Sci. USA (1978), vol. 75, pages 4194-4198. Liposomes were then sized by multiple extrusions through Nucleopore® polycarbonate membranes (10 times, 50 psi, using 0.8 and 2×0.4 micron filter stacks) and the untrapped 5(6)-carboxyfluorescein was removed by size exclusion chromatography (Sephadex G-25 column 1×30 cm) using the same phosphate/saline buffer according to the method of F. Olson et al. in Biochim. […] Vesicles formed in this way are approximately 150 nanometer in diameter as determined by electron microscopy. […] In each experiment, […] of the stock vesicle solution (3.5×10^−3 M in phospholipids) was added to pH 5.5 buffer (1.3 ml, 137 mM NaCl, 2.6 mM KCl, 6.4 Na2HPO4, 1.4 KH2PO4) and placed in a 1 cm quartz cuvette inside a stirring thermojacketed sample holder of the fluorescence instrument and equilibrated at 25° C. for 15 minutes with gentle stirring. To the cuvette, through an injector port, […] of the peptide dissolved in DMSO was added with continuous fluorescence monitoring at 520 nm (excitation at 470 nm). The observed data were then normalized for comparison into the fractional change in fluorescence ((I0-It)/(I0-I∞)) (V. E. Carmichael et al, in J.Am. Chem. Soc. (1989), vol. 111, pages 767-769)).

The test system of series [8] is S. aureus MRSA (ATCC 33591). In words: Mouse peritonitis model, MRSA protection. The series is classed as in vivo, mice. Further details: PD50 MRSA: unit not given here. Here is the method:
Bacteria were prepared for in vivo using procedures similar to those as previously described. […] S. aureus MRSA bacteria (ATCC 33591) were grown at 37° C. in 5 mL of Antibiotic Medium-3 (AM-3, Difco Laboratories) with agitation for 12 hours to a stationary phase. Cells were collected by centrifugation, washed twice with saline solution and resuspended in about 10 mL of saline to an O.D.650 of 1.2. This suspension was diluted ten times in a sterilized 5% mucin (Difco) in saline to a concentration of 2-4×10^7 cfu/ml (actual inoculum size was verified by colony counts on agar plates).
Peptides of the invention were tested in mice to ascertain whether they would protect the mice against bacterial infection using procedures similar to those described in N. Frimodt-Moller et al., The Mouse Peritonitis/Sepsis Model, in Zak et al. (eds.) HANDBOOK OF ANIMAL MODELS OF INFECTION 127-37 (Academic Press 1999).
Male Balb-C mice (6 weeks old, approximately 20 g) were used in the study. Staphylococcus aureus MRSA bacteria (ATCC 33591) were grown at 37° C. with agitation for 12 hours to a stationary phase. Cells were collected by centrifugation, washed twice with saline and resuspended to an O.D.650 of 1.4. This suspension was diluted ten times with saline and resuspended to a concentration of 3-5×10^7 cfu/ml. For each peptide five groups of eight mice per group were infected I.P. with 0.5 ml of the above Staphylococcus aureus MRSA preparation (lethal dose). Forty-five minutes to an hour after infection, each group was treated with a different dose of peptide and a control group received vehicle only. Mice were monitored for fourteen days; death was defined as the end point. Median protecting doses (PD50) were calculated following the Reed and Muench method. […] For IV and SQ models peptide was administered immediately after IP infection.

A short description of the next series: Toxicity studies in mice. The series is classed as in vivo. Further details: LD50(IP) / LD50(IV): unit not given here. How it is done:
Peptides were tested for toxicity in vivo using procedures similar to those described previously. […] Mice (male Balb-C) in groups of 4-8 were given via IV, IP or SQ single bolucdoses of peptides and monitored for 14 days. Toxicity of sublethal doses was assessed based on the behavior and appearance of the mice after peptide administration compared to control mice receiving only vehicle. Signs of acute toxicity included lack of activity, red feet and tail, faster breathing. Death was defined as the end point for lethal doses of peptides.
Toxicology Studies: Initial toxicology studies in mice were conducted to evaluate various routes of drug administration, maximum tolerable dose, and blood and tissue toxicity. Two mice in each dose study were injected with a bolus intravenous (IV), intraperitoneal (IP), or subcutaneous (SQ) doses of peptide SEQ ID NO:8, 18, and 26. For each study, two control animals received vehicle only and no peptide. […] Signs of acute toxicity included any one of the following: lack of activity, red feet and tail, or faster breathing. […] A regimen of […] of peptide SEQ ID NO:18 for three consecutive days was administered to two mice IP and two mice SQ.

Turning to `CC(C)C[C@H]1NC(=O)[C@H](Cc2c[nH]c3ccccc23)NC(=O)[C@@H](CCCCN)NC(=O)[C@H](Cc2c[nH]cn2)NC(=O)[C@@H](CO)NC(=O)[C@H](Cc2c[nH]c3ccccc23)NC(=O)[C@@H](CC(C)C)NC(=O)[C@H](Cc2c[nH]c3ccccc23)NC1=O` [SEQ ID NO:13] (cyclo([dS]H[dK]W[dL]W[dL]W)), the proteolytic stability result in [1] is listed as “stable”. Further, the “RBC Hemolysis (HD50)” value in the series with murine red blood cells (Table 9) is listed as 35. Also, the B. cerius MIC in series [2] (Table 10) stood at 12 µg/mL. Moreover, the “VRE (in vitro activity)” value in series [3] is recorded as 40. The molecule also came in with a VRE MIC in [3] (Table 10, ATCC 51575) of 40 µg/mL. In addition, the “E. coli MIC” value with E. coli JM109(DE3) (Table 6, JM109(DE3)) amounted to 100 µg/mL. Moreover, the “S. aureus (MRSA) MIC” value in series [4] (Table 6, ATCC 33591) was found to be 10 µg/mL. Also, the “MRSA (in vitro activity)” value in [4] is 10. This molecule returned an MRSA MIC in series [4] (Table 10, ATCC 33591) of 10 µg/mL.
In the case of `CC(C)C[C@H]1NC(=O)[C@H](Cc2c[nH]c3ccccc23)NC(=O)[C@@H](CCCCN)NC(=O)[C@H](CCCNC(=N)N)NC(=O)[C@@H](CCCCN)NC(=O)[C@H](Cc2c[nH]c3ccccc23)NC(=O)[C@@H](CC(C)C)NC(=O)[C@H](Cc2c[nH]c3ccccc23)NC1=O` [SEQ ID NO:19, D-Lys-Arg-D-Lys-Trp-D-Leu-Trp-D-Leu-Trp] (cyclo([dK]R[dK]W[dL]W[dL]W)), in [5], the “time to kill effectively all S. aureus (MRSA)” value is reported as “within about five minutes”. Besides, the “RBC Hemolysis (HD50)” value in the series on murine red blood cells was determined as 50. This molecule also gave a S. pneum. MIC in series [6] of 5 µg/mL. The same molecule showed a B. cerius MIC in [2] of 3 µg/mL. The molecule further had a VRE MIC in series [3] (ATCC 51575) of 8 µg/mL. Moreover, in series [3], the “VRE (in vitro activity)” value turned out to be 8. For the same molecule, in series [4] (ATCC 33591), the MRSA MIC is 15 µg/mL and the “S. aureus (MRSA) MIC” value was 10 µg/mL. Also, in series [4], the “MRSA (in vitro activity)” value worked out at 15.
Take cyclo[-(Gln-D-Leu)4]: in [7], the “proton / ion transport activity” value is recorded as “does not display any ion transport activity”.
For cyclo[-(^MeN-D-Ala-Phe)4-], in series [7], the “proton / ion transport activity” value is recorded as “does not promote proton transport activity”.
Turning to `CC(C)C[C@H]1NC(=O)[C@H](CCCCN)NC(=O)[C@@H](CCCCN)NC(=O)[C@H](Cc2c[nH]c3ccccc23)NC(=O)[C@@H](CC(C)C)NC(=O)[C@H](Cc2c[nH]c3ccccc23)NC1=O` [SEQ ID NO:26, cyclo-(D-Lys-Lys-D-Leu-Trp-D-Leu-Trp)] (cyclo(K[dL]W[dL]W[dK])), the proteolytic stability entry in series [1] is reported as “stable”. In the series on murine red blood cells, the “In Vitro RBC MIC” value is 80 µg/mL and the “RBC Hemolysis (HD50)” value came out at 80. The S. pneum. MIC in series [6] was 30 µg/mL. In [2], this molecule returned a B. cerius MIC of over 10 µg/mL. For the same molecule, in [3] (ATCC 51575), the “In Vitro VREF MIC” value was found to be 40 µg/mL and the VRE MIC was found to be 40 µg/mL. Further, the “VRE (in vitro activity)” value in [3] was 40. Further, in the series on E. coli JM109(DE3) (JM109), the “E. coli MIC” value was 17 µg/mL. For the same molecule, in series [8], the “PD50 S. aureus MRSA infection” value is 15 mg/kg. Moreover, the “PD50 protective dose where 50% of animals survive” value in series [8] (FIG. 6, mice challenged with lethal doses of MRSA) was determined as 10 ± 2 mg/kg. The “PD50 MRSA” value in series [8] (Table 12, male Balb-C mice, IP infection, IP peptide) was 15. The “In Vivo MRSA PD50” value in [8] (Table 13) is given as 15 mg/kg. Besides, the “protection of mice from MRSA infection” value in series [8] (single bolus IP dose of appropriate amount, 45-60 min after infection) is given as “completely protect”. In addition, in series [4] (ATCC 33591), the “In Vitro MRSA MIC” value worked out at 10 µg/mL, the MRSA MIC came out at 10 µg/mL and the “S. aureus (MRSA) MIC” value was 10 µg/mL. Moreover, the “MRSA (in vitro activity)” value in series [4] is recorded as 10. Moreover, in “Toxicity studies in mice” (Table 12, male Balb-C mice), the “LD50(IP)” value is recorded as 75 and the “LD50(IV)” value is 24. In addition, in “Toxicity studies in mice” (male, Balb-C, mouse, in vivo, ip, Table 13), the LD50 at 14 days turned out to be 75 mg/kg. Also, the “signs at highest dose” value in the series “Toxicity studies in mice” (mice, IP 50 mg/kg) was “signs of acute toxicity that were not observable after one hour”. In addition, in the series “Toxicity studies in mice” (mice, IP, maximum tested dose 50 mg/kg), the tolerability entry is recorded as “tolerated up to the maximum tested IP dose”.
As to “cyclo[-(Trp-D-Leu)3-Gln-D-Leu-] [SEQ ID NO:2]”, in [7], the “proton / ion transport activity” value is given as “rapid collapse of the pH gradient”.
